Results as given in ChEMBL document CHEMBL3885861, “Open TG-GATES”.

Species: Rattus norvegicus
Assay: Open TG-GATES - Regimen: Single
Format: toxicity, organism-based, Sprague-Dawley
Set-up: regimen Single, gender Male, age 6 weeks
Conditions: in vivo, po, route gavage; for Bas / Eos / Fbg / Hb / Ht / Lym / MCH / MCHC / MCV / Mono / Neu / PT / Plat / RBC / Ret / WBC: tissue Blood; for KIDNEY_L / KIDNEY_R / KIDNEY_TOTAL: tissue Kidney; for LIVER: tissue Liver; for ALP / ALT / AST / BUN / CRE / Ca / Cl / DBIL / GLC / IP / K / LDH / Na / PL / RALB / TBIL / TC / TG / TP / gamma-GTP: tissue Plasma
[1] = 0 mg/kg, 3 h, dose level Control
[2] = 0 mg/kg, 6 h, dose level Control
[3] = 0 mg/kg, 9 h, dose level Control
[4] = 0 mg/kg, 24 h, dose level Control

CN(C)CCCN1c2ccccc2Sc2ccc(Cl)cc21 [CHLORPROMAZINE]
TERMINAL_BW [1]: 223.8 g | Bas [1]: 0% | Eos [1]: 1.2% | Fbg [1]: 223.6 mg/dL | Hb [1]: 13.7 g/dL | Ht [1]: 39.3% | Lym [1]: 76% | MCH [1]: 21.8 pg | MCHC [1]: 34.7% | MCV [1]: 62.7 fL | Mono [1]: 2.6% | Neu [1]: 18.8% | PT [1]: 12.5 s | Plat [1]: 116.1 x10_4/uL | RBC [1]: 627.6 x10_4/ul | Ret [1]: 7.6% | WBC [1]: 91.8 x10_2/uL | KIDNEY_L [1]: 1 g | KIDNEY_R [1]: 1 g | KIDNEY_TOTAL [1]: 2 g | LIVER [1]: 10 g | ALP [1]: 1021.8 IU/L | ALT [1]: 37.6 IU/L | AST [1]: 78.8 IU/L | BUN [1]: 12.2 mg/dL | CRE [1]: 0.4 mg/dL | Ca [1]: 10.8 mg/dL | Cl [1]: 103.2 meq/L | DBIL [1]: 0.064 mg/dL | GLC [1]: 190 mg/dL | IP [1]: 8.5 mg/dL | K [1]: 4 meq/L | LDH [1]: 227.2 IU/L | Na [1]: 141.6 meq/L | PL [1]: 131.8 mg/dL | RALB [1]: 3.5 g/dL | TBIL [1]: 0.1 mg/dL | TC [1]: 67.6 mg/dL | TG [1]: 62.6 mg/dL | TP [1]: 5.5 g/dL | gamma-GTP [1]: 1 IU/L | TERMINAL_BW [2]: 217.9 g | Bas [2]: 0% | Eos [2]: 1% | Fbg [2]: 227.4 mg/dL | Hb [2]: 13.4 g/dL | Ht [2]: 38.8% | Lym [2]: 77.2% | MCH [2]: 21.1 pg | MCHC [2]: 34.5% | MCV [2]: 61.2 fL | Mono [2]: 2.8% | Neu [2]: 17.4% | PT [2]: 12.5 s | Plat [2]: 113.2 x10_4/uL | RBC [2]: 634 x10_4/ul | Ret [2]: 7.6% | WBC [2]: 104.6 x10_2/uL | KIDNEY_L [2]: 1 g | KIDNEY_R [2]: 1 g | KIDNEY_TOTAL [2]: 1.9 g | LIVER [2]: 9.2 g | ALP [2]: 816 IU/L | ALT [2]: 33.6 IU/L | AST [2]: 79.8 IU/L | BUN [2]: 9 mg/dL | CRE [2]: 0.4 mg/dL | Ca [2]: 10.7 mg/dL | Cl [2]: 103.4 meq/L | DBIL [2]: 0.066 mg/dL | GLC [2]: 190 mg/dL | IP [2]: 9.4 mg/dL | K [2]: 3.9 meq/L | LDH [2]: 221.2 IU/L | Na [2]: 141.8 meq/L | PL [2]: 133.6 mg/dL | RALB [2]: 3.4 g/dL | TBIL [2]: 0.1 mg/dL | TC [2]: 75.8 mg/dL | TG [2]: 56.2 mg/dL | TP [2]: 5.4 g/dL | gamma-GTP [2]: 0.8 IU/L | TERMINAL_BW [3]: 219.8 g | Bas [3]: 0.4% | Eos [3]: 0.6% | Fbg [3]: 227 mg/dL | Hb [3]: 13.2 g/dL | Ht [3]: 38.2% | Lym [3]: 78.8% | MCH [3]: 21.7 pg | MCHC [3]: 34.5% | MCV [3]: 63 fL | Mono [3]: 2.6% | Neu [3]: 16.6% | PT [3]: 12.6 s | Plat [3]: 122.8 x10_4/uL | RBC [3]: 606.2 x10_4/ul | Ret [3]: 8.3% | WBC [3]: 82.3 x10_2/uL | KIDNEY_L [3]: 1 g | KIDNEY_R [3]: 1 g | KIDNEY_TOTAL [3]: 2 g | LIVER [3]: 9 g | ALP [3]: 922.2 IU/L | ALT [3]: 30.6 IU/L | AST [3]: 68 IU/L | BUN [3]: 11.4 mg/dL | CRE [3]: 0.4 mg/dL | Ca [3]: 10.7 mg/dL | Cl [3]: 104 meq/L | DBIL [3]: 0.066 mg/dL | GLC [3]: 203.4 mg/dL | IP [3]: 10.2 mg/dL | K [3]: 3.8 meq/L | LDH [3]: 180.2 IU/L | Na [3]: 141.8 meq/L | PL [3]: 132.6 mg/dL | RALB [3]: 3.3 g/dL | TBIL [3]: 0.1 mg/dL | TC [3]: 69.8 mg/dL | TG [3]: 59.2 mg/dL | TP [3]: 5.4 g/dL | gamma-GTP [3]: 1 IU/L | TERMINAL_BW [4]: 233.7 g | Bas [4]: 0.8% | Eos [4]: 1.2% | Fbg [4]: 230.4 mg/dL | Hb [4]: 13 g/dL | Ht [4]: 38.5% | Lym [4]: 79% | MCH [4]: 21.2 pg | MCHC [4]: 33.8% | MCV [4]: 62.8 fL | Mono [4]: 3% | Neu [4]: 15.8% | PT [4]: 11.7 s | Plat [4]: 133.9 x10_4/uL | RBC [4]: 613.8 x10_4/ul | Ret [4]: 7.4% | WBC [4]: 115.9 x10_2/uL | KIDNEY_L [4]: 1 g | KIDNEY_R [4]: 1 g | KIDNEY_TOTAL [4]: 2 g | LIVER [4]: 10.7 g | ALP [4]: 1074.4 IU/L | ALT [4]: 34.8 IU/L | AST [4]: 73.8 IU/L | BUN [4]: 16 mg/dL | CRE [4]: 0.5 mg/dL | Ca [4]: 10.8 mg/dL | Cl [4]: 103.8 meq/L | DBIL [4]: 0.058 mg/dL | GLC [4]: 203 mg/dL | IP [4]: 7 mg/dL | K [4]: 4 meq/L | LDH [4]: 192.2 IU/L | Na [4]: 141.2 meq/L | PL [4]: 140 mg/dL | RALB [4]: 3.4 g/dL | TBIL [4]: 0.1 mg/dL | TC [4]: 78.6 mg/dL | TG [4]: 80.2 mg/dL | TP [4]: 5.6 g/dL | gamma-GTP [4]: 1 IU/L | TERMINAL_BW (45 mg/kg, 3 h, dose level Low): 220 g | Bas (45 mg/kg, 3 h, dose level Low): 0% | Eos (45 mg/kg, 3 h, dose level Low): 1% | Fbg (45 mg/kg, 3 h, dose level Low): 221.8 mg/dL | Hb (45 mg/kg, 3 h, dose level Low): 12.5 g/dL | Ht (45 mg/kg, 3 h, dose level Low): 36.7% | Lym (45 mg/kg, 3 h, dose level Low): 79.4% | MCH (45 mg/kg, 3 h, dose level Low): 21 pg | MCHC (45 mg/kg, 3 h, dose level Low): 33.9% | MCV (45 mg/kg, 3 h, dose level Low): 61.9 fL | Mono (45 mg/kg, 3 h, dose level Low): 2.2% | Neu (45 mg/kg, 3 h, dose level Low): 17% | PT (45 mg/kg, 3 h, dose level Low): 12.1 s | Plat (45 mg/kg, 3 h, dose level Low): 127.9 x10_4/uL | RBC (45 mg/kg, 3 h, dose level Low): 594 x10_4/ul | Ret (45 mg/kg, 3 h, dose level Low): 7.8% | WBC (45 mg/kg, 3 h, dose level Low): 55.8 x10_2/uL | KIDNEY_L (45 mg/kg, 3 h, dose level Low): 0.9 g | KIDNEY_R (45 mg/kg, 3 h, dose level Low): 0.9 g | KIDNEY_TOTAL (45 mg/kg, 3 h, dose level Low): 1.8 g | LIVER (45 mg/kg, 3 h, dose level Low): 10.3 g | ALP (45 mg/kg, 3 h, dose level Low): 910.4 IU/L | ALT (45 mg/kg, 3 h, dose level Low): 31.6 IU/L | AST (45 mg/kg, 3 h, dose level Low): 66.4 IU/L | BUN (45 mg/kg, 3 h, dose level Low): 10.2 mg/dL | CRE (45 mg/kg, 3 h, dose level Low): 0.4 mg/dL | Ca (45 mg/kg, 3 h, dose level Low): 10.9 mg/dL | Cl (45 mg/kg, 3 h, dose level Low): 105.6 meq/L | DBIL (45 mg/kg, 3 h, dose level Low): 0.066 mg/dL | GLC (45 mg/kg, 3 h, dose level Low): 244.4 mg/dL | IP (45 mg/kg, 3 h, dose level Low): 10.2 mg/dL | K (45 mg/kg, 3 h, dose level Low): 3.8 meq/L | LDH (45 mg/kg, 3 h, dose level Low): 210 IU/L | Na (45 mg/kg, 3 h, dose level Low): 144.8 meq/L | PL (45 mg/kg, 3 h, dose level Low): 151 mg/dL | RALB (45 mg/kg, 3 h, dose level Low): 3.5 g/dL | TBIL (45 mg/kg, 3 h, dose level Low): 0.1 mg/dL | TC (45 mg/kg, 3 h, dose level Low): 77.8 mg/dL | TG (45 mg/kg, 3 h, dose level Low): 77 mg/dL | TP (45 mg/kg, 3 h, dose level Low): 5.4 g/dL | gamma-GTP (45 mg/kg, 3 h, dose level Low): 1 IU/L | TERMINAL_BW (45 mg/kg, 6 h, dose level Low): 214.5 g | Bas (45 mg/kg, 6 h, dose level Low): 0.2% | Eos (45 mg/kg, 6 h, dose level Low): 1% | Fbg (45 mg/kg, 6 h, dose level Low): 221.8 mg/dL | Hb (45 mg/kg, 6 h, dose level Low): 12.5 g/dL | Ht (45 mg/kg, 6 h, dose level Low): 36.9% | Lym (45 mg/kg, 6 h, dose level Low): 69.4% | MCH (45 mg/kg, 6 h, dose level Low): 21 pg | MCHC (45 mg/kg, 6 h, dose level Low): 34% | MCV (45 mg/kg, 6 h, dose level Low): 62 fL | Mono (45 mg/kg, 6 h, dose level Low): 2.2% | Neu (45 mg/kg, 6 h, dose level Low): 26% | PT (45 mg/kg, 6 h, dose level Low): 12 s | Plat (45 mg/kg, 6 h, dose level Low): 129.9 x10_4/uL | RBC (45 mg/kg, 6 h, dose level Low): 596.2 x10_4/ul | Ret (45 mg/kg, 6 h, dose level Low): 8.2% | WBC (45 mg/kg, 6 h, dose level Low): 48 x10_2/uL | KIDNEY_L (45 mg/kg, 6 h, dose level Low): 1 g | KIDNEY_R (45 mg/kg, 6 h, dose level Low): 0.9 g | KIDNEY_TOTAL (45 mg/kg, 6 h, dose level Low): 1.9 g | LIVER (45 mg/kg, 6 h, dose level Low): 9.4 g | ALP (45 mg/kg, 6 h, dose level Low): 861 IU/L | ALT (45 mg/kg, 6 h, dose level Low): 29.6 IU/L | AST (45 mg/kg, 6 h, dose level Low): 68.4 IU/L | BUN (45 mg/kg, 6 h, dose level Low): 8.6 mg/dL | CRE (45 mg/kg, 6 h, dose level Low): 0.4 mg/dL | Ca (45 mg/kg, 6 h, dose level Low): 10.5 mg/dL | Cl (45 mg/kg, 6 h, dose level Low): 106.4 meq/L | DBIL (45 mg/kg, 6 h, dose level Low): 0.07 mg/dL | GLC (45 mg/kg, 6 h, dose level Low): 249.6 mg/dL | IP (45 mg/kg, 6 h, dose level Low): 10.8 mg/dL | K (45 mg/kg, 6 h, dose level Low): 3.6 meq/L | LDH (45 mg/kg, 6 h, dose level Low): 219.6 IU/L | Na (45 mg/kg, 6 h, dose level Low): 144.8 meq/L | PL (45 mg/kg, 6 h, dose level Low): 138.2 mg/dL | RALB (45 mg/kg, 6 h, dose level Low): 3.4 g/dL | TBIL (45 mg/kg, 6 h, dose level Low): 0.1 mg/dL | TC (45 mg/kg, 6 h, dose level Low): 79.2 mg/dL | TG (45 mg/kg, 6 h, dose level Low): 19.2 mg/dL | TP (45 mg/kg, 6 h, dose level Low): 5.4 g/dL | gamma-GTP (45 mg/kg, 6 h, dose level Low): 1 IU/L
